{"source": "ChEMBL document CHEMBL1201862", "about": "“PubChem BioAssay data set” (2004)", "test_in_all_cases": "DTP human tumour cell line panel, 48 h", "key": {"[1]": {"system": "HCT-15"}, "[2]": {"system": "NCI-H460"}, "[3]": {"system": "U-251"}, "[4]": {"system": "CCRF-CEM"}, "[5]": {"system": "HOP-62"}, "[6]": {"system": "COLO 205"}, "[7]": {"system": "Malme-3M"}, "[8]": {"system": "RPMI-8226"}, "[9]": {"system": "SW-620"}, "[10]": {"system": "SK-MEL-2"}, "[11]": {"system": "HCT-116"}, "[12]": {"system": "CAKI-1"}, "[13]": {"system": "A549"}, "[14]": {"system": "UO-31"}, "[15]": {"system": "LOX IMVI"}, "[16]": {"system": "K562"}, "[17]": {"system": "OVCAR-3"}, "[18]": {"system": "UACC-62"}, "[19]": {"system": "SF-539"}, "[20]": {"system": "RXF 631"}, "[21]": {"system": "OVCAR-5"}, "[22]": {"system": "DLD-1"}, "[23]": {"system": "OVCAR-4"}, "[24]": {"system": "KM-20L2"}, "[25]": {"system": "HCC 2998"}, "[26]": {"system": "SF-295"}, "[27]": {"system": "HOP-92"}, "[28]": {"system": "786-0"}, "[29]": {"system": "SK-OV-3"}, "[30]": {"system": "SK-MEL-5"}, "[31]": {"system": "M14"}, "[32]": {"system": "DMS-114"}, "[33]": {"system": "LXFL 529"}, "[34]": {"system": "KM12"}, "[35]": {"system": "MOLT-4"}, "[36]": {"system": "ACHN"}, "[37]": {"system": "HL-60"}, "[38]": {"system": "OVCAR-8"}, "[39]": {"system": "TK-10"}, "[40]": {"system": "A498"}, "[41]": {"system": "M19-MEL"}, "[42]": {"system": "SNB-78"}, "[43]": {"system": "EKVX"}, "[44]": {"system": "UACC-257"}, "[45]": {"system": "IGROV-1"}, "[46]": {"system": "SNB-19"}, "[47]": {"system": "DMS-273"}, "[48]": {"system": "SNB-75"}, "[49]": {"system": "SK-MEL-28"}, "[50]": {"system": "SN12C"}, "[51]": {"system": "XF498"}, "[52]": {"system": "NCI-H23"}, "[53]": {"system": "HOP-18"}, "[54]": {"system": "HT-29"}, "[55]": {"system": "NCI-H522"}, "[56]": {"system": "SF-268"}, "[57]": {"system": "SR"}}, "note": "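Values below derive from 48-hour exposures of cells grown in 96-well plates, with endpoints linearly interpolated between the two concentrations bracketing the appropriate inhibition level. GI50: concentration for 50% inhibition of growth.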 The source made the active and inactive calls. No stated cut-off is given here; in the data, active = GI50 up to about 1.1 µM and inactive = higher.", "data": [{"smiles": "O=C(Nc1cc(Cl)cc(Cl)c1)/C(Cc1nc2ccccc2nc1O)=N/NC(=O)c1ccncc1", "values": [{"measurement": "GI50", "setting": "[1]", "value": "> 100", "unit": "µM"}, {"measurement": "GI50", "setting": "[2]", "value": "> 100 µM (inactive)"}, {"measurement": "GI50", "setting": "[3]", "value": "> 100 µM (inactive)"}, {"measurement": "GI50", "setting": "[4]", "value": "> 100 µM (inactive)"}, {"measurement": "GI50", "setting": "[5]", "value": "> 100 µM (inactive)"}, {"measurement": "GI50", "setting": "[6]", "value": "> 100 µM (inactive)"}, {"measurement": "GI50", "setting": "[7]", "value": "> 100 µM (inactive)"}, {"measurement": "GI50", "setting": "[8]", "value": "> 100 µM (inactive)"}, {"measurement": "GI50", "setting": "[9]", "value": "> 100 µM (inactive)"}, {"measurement": "GI50", "setting": "[10]", "value": "> 100 µM (inactive)"}, {"measurement": "GI50", "setting": "[11]", "value": "> 100 µM (inactive)"}, {"measurement": "GI50", "setting": "[12]", "value": "> 100 µM (inactive)"}, {"measurement": "GI50", "setting": "[13]", "value": "> 100 µM (inactive)"}, {"measurement": "GI50", "setting": "[14]", "value": "> 100 µM (inactive)"}, {"measurement": "GI50", "setting": "[15]", "value": "> 100 µM (inactive)"}, {"measurement": "GI50", "setting": "[16]", "value": "> 100 µM (inactive)"}, {"measurement": "GI50", "setting": "[17]", "value": "> 100 µM (inactive)"}, {"measurement": "GI50", "setting": "[18]", "value": "> 100 µM (inactive)"}, {"measurement": "GI50", "setting": "[19]", "value": "> 100 µM (inactive)"}, {"measurement": "GI50", "setting": "[20]", "value": "> 100 µM (inactive)"}, {"measurement": "GI50", "setting": "[21]", "value": "67 µM (inactive)"}, {"measurement": "GI50", "setting": "[22]", "value": "> 100 µM (inactive)"}, {"measurement": "GI50", "setting": "[23]", "value": "> 100 µM (inactive)"}, {"measurement": "GI50", "setting": "[24]", "value": "> 100 µM (inactive)"}, {"measurement": "GI50", "setting": "[25]", "value": "> 100 µM (inactive)"}, {"measurement": "GI50", "setting": "[26]", "value": "> 100 µM (inactive)"}, {"measurement": "GI50", "setting": "[27]", "value": "14.4 µM (inactive)"}, {"measurement": "GI50", "setting": "[28]", "value": "> 100 µM (inactive)"}, {"measurement": "GI50", "setting": "[29]", "value": "> 100 µM (inactive)"}, {"measurement": "GI50", "setting": "[30]", "value": "> 100 µM (inactive)"}, {"measurement": "GI50", "setting": "[31]", "value": "> 100 µM (inactive)"}, {"measurement": "GI50", "setting": "[32]", "value": "> 100 µM (inactive)"}, {"measurement": "GI50", "setting": "[33]", "value": "> 100 µM (inactive)"}, {"measurement": "GI50", "setting": "[34]", "value": "> 100 µM (inactive)"}, {"measurement": "GI50", "setting": "[35]", "value": "> 100 µM (inactive)"}, {"measurement": "GI50", "setting": "[36]", "value": "> 100 µM (inactive)"}, {"measurement": "GI50", "setting": "[37]", "value": "> 100 µM (inactive)"}, {"measurement": "GI50", "setting": "[38]", "value": "> 100 µM (inactive)"}, {"measurement": "GI50", "setting": "[39]", "value": "> 100 µM (inactive)"}, {"measurement": "GI50", "setting": "[40]", "value": "> 100 µM (inactive)"}, {"measurement": "GI50", "setting": "[41]", "value": "> 100 µM (inactive)"}, {"measurement": "GI50", "setting": "[42]", "value": "> 100 µM (inactive)"}, {"measurement": "GI50", "setting": "[43]", "value": "> 100 µM (inactive)"}, {"measurement": "GI50", "setting": "[44]", "value": "> 100 µM (inactive)"}, {"measurement": "GI50", "setting": "[45]", "value": "> 100 µM (inactive)"}, {"measurement": "GI50", "setting": "[46]", "value": "> 100 µM (inactive)"}]}, {"smiles": "[N-]=[N+]=NC1(Cc2ccccc2)C(=O)Nc2ccccc2C1=O", "note": "(stereo unspecified)", "values": [{"measurement": "GI50", "setting": "[47]", "value": "> 100 µM (inactive)"}, {"measurement": "GI50", "setting": "[48]", "value": "> 100 µM (inactive)"}, {"measurement": "GI50", "setting": "[1]", "value": "> 100", "unit": "µM"}, {"measurement": "GI50", "setting": "[2]", "value": "> 100 µM (inactive)"}, {"measurement": "GI50", "setting": "[49]", "value": "> 100 µM (inactive)"}, {"measurement": "GI50", "setting": "[3]", "value": "> 100 µM (inactive)"}, {"measurement": "GI50", "setting": "[4]", "value": "> 100 µM (inactive)"}, {"measurement": "GI50", "setting": "[5]", "value": "> 100 µM (inactive)"}, {"measurement": "GI50", "setting": "[6]", "value": "> 100 µM (inactive)"}, {"measurement": "GI50", "setting": "[7]", "value": "> 100 µM (inactive)"}, {"measurement": "GI50", "setting": "[9]", "value": "> 100 µM (inactive)"}, {"measurement": "GI50", "setting": "[10]", "value": "> 100 µM (inactive)"}, {"measurement": "GI50", "setting": "[11]", "value": "> 100 µM (inactive)"}, {"measurement": "GI50", "setting": "[50]", "value": "> 100 µM (inactive)"}, {"measurement": "GI50", "setting": "[12]", "value": "> 100 µM (inactive)"}, {"measurement": "GI50", "setting": "[13]", "value": "> 100 µM (inactive)"}, {"measurement": "GI50", "setting": "[14]", "value": "39.6 µM (inactive)"}, {"measurement": "GI50", "setting": "[15]", "value": "> 100 µM (inactive)"}, {"measurement": "GI50", "setting": "[16]", "value": "> 100 µM (inactive)"}, {"measurement": "GI50", "setting": "[51]", "value": "> 100 µM (inactive)"}, {"measurement": "GI50", "setting": "[17]", "value": "91.6 µM (inactive)"}, {"measurement": "GI50", "setting": "[18]", "value": "> 100 µM (inactive)"}, {"measurement": "GI50", "setting": "[19]", "value": "> 100 µM (inactive)"}, {"measurement": "GI50", "setting": "[52]", "value": "> 100 µM (inactive)"}, {"measurement": "GI50", "setting": "[21]", "value": "> 100 µM (inactive)"}, {"measurement": "GI50", "setting": "[53]", "value": "> 100 µM (inactive)"}, {"measurement": "GI50", "setting": "[22]", "value": "> 100 µM (inactive)"}, {"measurement": "GI50", "setting": "[23]", "value": "> 100 µM (inactive)"}, {"measurement": "GI50", "setting": "[24]", "value": "> 100 µM (inactive)"}, {"measurement": "GI50", "setting": "[54]", "value": "> 100 µM (inactive)"}, {"measurement": "GI50", "setting": "[25]", "value": "> 100 µM (inactive)"}, {"measurement": "GI50", "setting": "[26]", "value": "> 100 µM (inactive)"}, {"measurement": "GI50", "setting": "[27]", "value": "> 100 µM (inactive)"}, {"measurement": "GI50", "setting": "[28]", "value": "> 100 µM (inactive)"}, {"measurement": "GI50", "setting": "[29]", "value": "> 100 µM (inactive)"}, {"measurement": "GI50", "setting": "[30]", "value": "> 100 µM (inactive)"}, {"measurement": "GI50", "setting": "[31]", "value": "> 100 µM (inactive)"}, {"measurement": "GI50", "setting": "[32]", "value": "> 100 µM (inactive)"}, {"measurement": "GI50", "setting": "[33]", "value": "> 100 µM (inactive)"}, {"measurement": "GI50", "setting": "[55]", "value": "87.1 µM (inactive)"}, {"measurement": "GI50", "setting": "[34]", "value": "> 100 µM (inactive)"}, {"measurement": "GI50", "setting": "[35]", "value": "> 100 µM (inactive)"}, {"measurement": "GI50", "setting": "[36]", "value": "> 100 µM (inactive)"}, {"measurement": "GI50", "setting": "[37]", "value": "> 100 µM (inactive)"}, {"measurement": "GI50", "setting": "[38]", "value": "> 100 µM (inactive)"}, {"measurement": "GI50", "setting": "[39]", "value": "> 100 µM (inactive)"}, {"measurement": "GI50", "setting": "[40]", "value": "> 100 µM (inactive)"}, {"measurement": "GI50", "setting": "[41]", "value": "> 100 µM (inactive)"}, {"measurement": "GI50", "setting": "[42]", "value": "52.8 µM (inactive)"}, {"measurement": "GI50", "setting": "[43]", "value": "> 100 µM (inactive)"}, {"measurement": "GI50", "setting": "[44]", "value": "> 100 µM (inactive)"}, {"measurement": "GI50", "setting": "[56]", "value": "> 100 µM (inactive)"}, {"measurement": "GI50", "setting": "[45]", "value": "88.7 µM (inactive)"}, {"measurement": "GI50", "setting": "[46]", "value": "> 100 µM (inactive)"}, {"measurement": "GI50", "setting": "[57]", "value": "> 100 µM (inactive)"}]}]}
